From the supplement of paper PMC11616607

Tests used:
Test in all cases: drug sensitivity score (DSS) from 5-point dose-response viability curve (DSS (area-under-curve based score)); higher = more sensitive (stronger growth inhibition or killing); extreme values may be limits of the assay
Conditions in all cases: exposure time: 72 h; concentration range: 5 concentrations over 10,000-fold range
OVCAR5 = test system: OVCAR5
In short: (§1)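 Viability of ovarian cancer and normal ovarian cell lines was read by CellTiter-Glo luminescence after 3 days at 37°C and 5% CO2 in 384-well plates holding 1,500 cells per well. Drugs had been dispensed in DMSO or water with an Echo 550 at five concentrations over a 10,000-fold range. Using Breeze software, a drug sensitivity score was assigned per cell line and drug, higher scores meaning more sensitive, and zero means no response.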

Ovsaho = test system: Ovsaho
In short: as §1

OV90 = test system: OV90
In short: as §1

CAOV3 = test system: CAOV3
In short: as §1

HOSE2C = test system: HOSE2C
In short: as §1

COV362 = test system: COV362
In short: as §1

JHOS2 = test system: JHOS2
In short: as §1

OVCAR4 = test system: OVCAR4
In short: as §1

Kuramochi = test system: Kuramochi
In short: as §1

COV318 = test system: COV318
In short: as §1

HOSE1C = test system: HOSE1C
In short: as §1

OVCAR8 = test system: OVCAR8
In short: as §1

Structure (SMILES) | drug sensitivity score (OVCAR5) | drug sensitivity score (Ovsaho) | drug sensitivity score (OV90) | drug sensitivity score (CAOV3) | drug sensitivity score (HOSE2C) | drug sensitivity score (COV362) | drug sensitivity score (JHOS2) | drug sensitivity score (OVCAR4) | drug sensitivity score (Kuramochi) | drug sensitivity score (COV318) | drug sensitivity score (HOSE1C) | drug sensitivity score (OVCAR8)
CC(C)(C)c1cc(NC(=O)Nc2ccc(Oc3ccnc4[nH]c(=O)cnc34)cc2F)n(-c2ccccc2)n1 | 1.8 | 1.6 | 12.4 | 2.8 | 12.8 | 0 | 0.5 | 2.8 | 2.3 | 0 | 16.2 | 2
CC(C)Oc1ccc(C(=O)N[C@H](CNC(=O)CN(C)C)Cc2ccc(-c3cn4cccc([C@H](C)O)c4n3)cc2)cc1Cl | 16.3 | 10.2 | 12 | 17.5 | 11.1 | 6 | 7.2 | 4.2 | 9 | 3.9 | 14.1 | 14
CCn1c(-c2nonc2N)nc2c(C#CC(C)(C)O)ncc(OC[C@H]3CCCNC3)c21 | 0 | 0.5 | 0.6 | 4.3 | 3.7 | 1.3 | 0 | 0 | 2.9 | 0 | 1.4 | 0
CCn1c(-c2nonc2N)nc2cnc(Oc3cccc(NC(=O)c4ccc(OCCN5CCOCC5)cc4)c3)cc21 | 2.2 | 0.9 | 5.1 | 1.6 | 6 | 0.2 | 2.8 | 0.6 | 2.1 | 5.7 | 12.7 | 4.4
CCn1cc(-c2ccnc3[nH]c(-c4cccc(CN(C)C)c4)cc23)c(-c2ccc(NC(=O)N(C)C)cc2)n1 | 2 | 1.2 | 0.3 | 17 | 1.4 | 0.2 | 0 | 2.9 | 0.4 | 0.2 | 1.3 | 1.9
CN(c1ncccc1CNc1nc(Nc2ccc3c(c2)CC(=O)N3)ncc1C(F)(F)F)S(C)(=O)=O | 6.1 | 5.7 | 5.9 | 7.4 | 3.9 | 3.5 | 5.1 | 4.7 | 5.5 | 1.9 | 4.6 | 4.3
CN1CCN(C2CCC(n3cc(-c4ccc(Oc5ccccc5)cc4)c4c(N)ncnc43)CC2)CC1 (stereo unspecified) | 15.1 | 15.6 | 10.3 | 11.4 | 9.3 | 11.5 | 7.1 | 7.6 | 12.6 | 6.9 | 7.8 | 9.4
CNC(=O)c1ccccc1Nc1nc(Nc2ccc3c(c2OC)CCC[C@H](N2CCN(CCO)CC2)C3)ncc1Cl | 9.1 | 8.5 | 8.8 | 8.2 | 8.4 | 5.4 | 7.6 | 5.2 | 6.4 | 5.2 | 4.8 | 4.9
CNc1nc(-c2ccc3c(N)n[nH]c3c2)cc(N2C[C@@H](C(=O)NC3CCCCC3)CC[C@H]2C)n1 | 0 | 1.1 | 0 | 1.9 | 2.6 | 0 | 0.7 | 0 | 0.5 | 0.1 | 4.5 | 1.2
CNc1ncc2cc(-c3cc(NC(=O)NCCC(C)(C)C)c(F)cc3C)c(C)nc2n1 | 11.3 | 8.9 | 24.4 | 7.9 | 5 | 4.2 | 10.3 | 3.7 | 8.7 | 0.8 | 4.2 | 9.9
CONC(=O)c1ccccc1Nc1cc(Nc2cc(C)nn2C(C)C)ncc1Cl | 0.3 | 3.1 | 0 | 0 | 0 | 0.2 | 0.1 | 0.1 | 1.4 | 0 | 0 | 0
CO[C@@H](C)Cn1c(=O)n(C)c2cnc3ccc(-c4cncc(C(C)(C)O)c4)cc3c21 | 8.7 | 10.9 | 11.9 | 9.2 | 9.9 | 3.8 | 7.8 | 9.8 | 8.3 | 6.8 | 15.1 | 9.5
COc1cc2ncnc(Oc3cccc(NC(=O)Nc4cc(C(C)(C)C(F)(F)F)on4)c3)c2cc1OC | 3 | 0 | 2.4 | 0 | 0 | 0 | 1.5 | 0 | 0.4 | 0 | 1.3 | 0
COc1ccc(Cn2ccc3ccc(C(=O)NO)cc32)cc1 | 0.7 | 2.6 | 1.8 | 1.1 | 1.5 | 0 | 0.1 | 3.6 | 1.2 | 0 | 2.5 | 3.7
COc1ccc2[nH]cc(/C=C3\C(=O)Nc4ccc(NC(=O)CCN5CCCCC5)cc43)c2c1 | 9.4 | 4.6 | 11.7 | 6.3 | 6.1 | 8.7 | 5 | 4.9 | 5.7 | 5.4 | 4.8 | 8.8
C[C@@H](Oc1cc(-n2cnc3ccc(CN4CCN(C)CC4)cc32)sc1C(N)=O)c1ccccc1C(F)(F)F | 19.4 | 24.7 | 19.6 | 22.4 | 10.1 | 3.6 | 15.3 | 3.6 | 7.7 | 6.8 | 13.7 | 29.1
C[C@@H](Oc1ccc2[nH]nc(/C=C/c3cnn(CCO)c3)c2c1)c1c(Cl)cncc1Cl | 5.5 | 4.9 | 5.3 | 6.9 | 22.7 | 2.2 | 2 | 2.5 | 1.8 | 2.3 | 8.5 | 3.4

Structure (SMILES) | drug sensitivity score (OVCAR5) | drug sensitivity score (Ovsaho) | drug sensitivity score (OV90) | drug sensitivity score (CAOV3) | drug sensitivity score (HOSE2C) | drug sensitivity score (COV362) | drug sensitivity score (JHOS2) | drug sensitivity score (OVCAR4) | drug sensitivity score (Kuramochi) | drug sensitivity score (COV318) | drug sensitivity score (HOSE1C) | drug sensitivity score (OVCAR8)
C[C@@H]1CN(CC(=O)Nc2ccc3c(c2)Cc2cccc(-c4cc(=O)cc(N5CCOCC5)o4)c2S3)C[C@H](C)O1 | 1.6 | 3.4 | 2.7 | 1.1 | 0 | 1.2 | 0 | 0.7 | 0.5 | 0 | 0 | 1.9
Cc1c(Cn2c(C)nc3c(C(=O)O)cc(N4CCOCC4)cc32)cccc1C(F)(F)F | 0 | 3.8 | 0 | 0 | 0 | 0 | 0 | 0 | 3.7 | 0 | 1.2 | 0
Cc1cccc(CC(=O)N2CCc3c2ccc(-c2cn(C)c4ncnc(N)c24)c3F)n1 | 0 | 0 | 0 | 0.4 | 0 | 0 | 0 | 1.1 | 0.2 | 0 | 0 | 1.5
Cc1ncc(Cl)cc1NCc1ccc(C(=O)N[C@@H](CC2CCCC2)C(=O)NC2CC2)s1 | 0 | 0 | 0.1 | 0 | 0 | 0 | 0 | 0 | 0.4 | 0 | 0 | 0
Cn1cc(-c2ccc(F)c(C(F)(F)F)c2)nc1C1CCN(c2ncnc3[nH]ncc23)CC1 | 0 | 0 | 0 | 0 | 3.2 | 0 | 0 | 0 | 0 | 0 | 1.9 | 0.1
Cn1cc(C2=Nc3cc(NC(=O)C(N)C4CCCCC4)cc4c3C2=CNNC4=O)cn1 (stereo unspecified) | 6.4 | 6.8 | 11.6 | 11 | 18.3 | 5.2 | 5.1 | 15.4 | 7.3 | 6.2 | 13.5 | 14.7
NCC(=O)Nc1ccc(-n2nc(C(F)(F)F)cc2-c2ccc3c(ccc4ccccc43)c2)cc1 | 0 | 4.9 | 0.1 | 1 | 8.9 | 0 | 1.5 | 0 | 1.4 | 2.8 | 21.7 | 2.7
O=C(NC[C@H](O)CN1CCc2ccccc2C1)c1cc(NC2COC2)ncn1 | 0.8 | 0 | 0 | 0 | 0 | 0 | 0.7 | 2 | 0.4 | 0.2 | 0 | 0
O=C(NOC[C@H](O)CO)c1ccc(F)c(F)c1Nc1ccc(I)cc1F | 9.7 | 13.5 | 21.6 | 11.7 | 0.4 | 2.4 | 3.2 | 2.1 | 5.2 | 0 | 0 | 1.7
O=C(O)c1ccc(-c2c[nH]c3ncc(-c4ccccc4)cc23)cc1C1CCCC1 | 1.4 | 0 | 1.2 | 2.3 | 1.2 | 0.1 | 0 | 0 | 0 | 0 | 0 | 0.3
O=C(O)c1ccc(CN2CCC(CN[C@@H]3C[C@H]3c3ccccc3)CC2)cc1 | 0 | 0 | 0 | 0 | 0 | 0 | 0 | 0.3 | 0 | 0 | 0 | 0
O=C1Cc2cc(C(=O)NC3C[C@H]4CC[C@@H](C3)N4S(=O)(=O)CC3CCN(CCCC(F)(F)F)CC3)c(Cl)cc2N1 (stereo partly specified) | 0 | 0 | 0.6 | 0 | 0 | 0 | 0 | 0 | 0 | 0 | 0 | 0
CCN(CC)CCCC(C)Nc1ccnc2cc(Cl)ccc12 (stereo unspecified) [Chloroquine] | 8.8 | 8.1 | 10 | 7.2 | 7.2 | 5.5 |  | 6.2 |  | 4.9 | 6.3 | 5.8
Nc1ccn([C@@H]2O[C@H](CO)[C@@H](O)[C@@H]2O)c(=O)n1 [Cytarabine] | 10.6 | 2 | 4.4 | 14.9 | 6.6 | 2.3 | 8.6 | 0 |  | 1 | 14 | 14.3
Cc1ccc(NC(=O)c2ccc(CN3CCN(C)CC3)cc2)cc1Nc1nccc(-c2cccnc2)n1 [Imatinib] | 1.3 | 0 | 1.5 | 0 | 0 | 0.3 | 0 | 0 |  | 0 | 0.2 | 0.5
CC[C@H](CO)Nc1nc(NCc2ccccc2)c2ncn(C(C)C)c2n1 [Seliciclib] | 3.4 | 0.1 | 0.3 | 0.4 | 0 | 0 | 1.2 | 0 |  | 1.1 | 1.1 | 1.6
